The results in this text go back to ChEMBL document CHEMBL1138532, “Global challenge of multidrug-resistant Acinetobacter baumannii” (Antimicrob Agents Chemother, 2007).

In data set [1] the test system is Acinetobacter baumannii. As to the kind of experiment: Antimicrobial activity against Acinetobacter baumannii isolates by E-test. The data set is classed as functional, organism-based.
For data set [2], the system named is Acinetobacter baumannii. Description: Antimicrobial activity against carbapenem-resistant Acinetobacter baumannii expressing ISAba3. It is filed as functional.
The subject of data set [3] is Acinetobacter baumannii. Description: Antimicrobial activity against carbapenem-resistant Acinetobacter baumannii expressing ISAba1. The data set is classed as functional.
The species entered for another data set is Homo sapiens. As to the kind of experiment: […] in carbapenem-resistant Acinetobacter baumannii infected human assessed as incidence of acute renal failure. It is filed as toxicity, organism-based. As to conditions: in vivo.
Data set [4] has as its system Acinetobacter baumannii. Description: Antimicrobial activity against Acinetobacter baumannii isolate producing metallo beta-lactamase by agar dilution method. It is filed as functional. On the technique in general: In agar dilution the substance is mixed into plates at graded concentrations.
For data set [5], the system named is Acinetobacter baumannii. As to the kind of experiment: Antimicrobial activity against Acinetobacter baumannii isolate producing IMP-4 beta-lactamase by agar dilution method. The data set is classed as functional.
For data set [6], the system named is Acinetobacter baumannii. Description: Antimicrobial activity against Acinetobacter baumannii isolate producing OXA-23 beta-lactamase by agar dilution method. The data set is classed as functional.
Data set [7] relates to Acinetobacter baumannii. As to the kind of experiment: Antimicrobial activity against drug-resistant Acinetobacter baumannii producing PER1 beta-lactamase. The data set is classed as functional.

One may read the MIC as the least concentration at which growth counts as inhibited. Read a high MIC as a need for much substance. Broadly, the MIC50 is the lowest concentration that inhibits either 50% of growth or 50% of the strains tested, depending on the study. As a reminder, the MIC90 is an inhibitory concentration at the 90% level, which refers to growth in some studies and to a panel of isolates in others.

Converted amounts (≈) assume the structure as drawn. Where only a bound is given, the exact number is not on record here.

Molecule COLISTIN [listing 1 of 2 here] came in with an MIC against Acinetobacter baumannii [1] of 1 µg/mL.
For the molecule `C[C@@H](O)[C@H]1C(=O)N2C(C(=O)O)=C(S[C@@H]3CN[C@H](C(=O)N(C)C)C3)[C@H](C)[C@H]12` [MEROPENEM], the MIC against Acinetobacter baumannii [2] and with Acinetobacter baumannii [3] was at least 32 µg/mL each time.
For COLISTIN [listing 2 of 2 here], the Activity in the data set filed under Homo sapiens was found to be 14%.
As to `C[C@@H](O)[C@H]1C(=O)N2C(C(=O)O)=C(S[C@@H]3CN[C@H](CNS(N)(=O)=O)C3)[C@H](C)[C@H]12` [DORIPENEM], in the data set with Acinetobacter baumannii [4], the MIC is at most 4 µg/mL, the MIC50 worked out at 0.5 µg/mL (≈ 1.19 µM) and the MIC90 was 16 µg/mL (≈ 38 µM). Further, in the data set with Acinetobacter baumannii [5], the MIC is at most 4 µg/mL, the MIC50 was determined as 0.5 µg/mL (≈ 1.19 µM) and the MIC90 turned out to be 16 µg/mL (≈ 38 µM). In the data set with Acinetobacter baumannii [6], the MIC was at most 4 µg/mL, the MIC50 was determined as 0.5 µg/mL (≈ 1.19 µM) and the MIC90 stood at 16 µg/mL (≈ 38 µM).
In turn, `CC(C)(O/N=C(\C(=O)N[C@@H]1C(=O)N2C(C(=O)[O-])=C(C[n+]3ccccc3)CS[C@H]12)c1csc(N)n1)C(=O)O` [CEFTAZIDIME] yielded an MIC in the data set with Acinetobacter baumannii [7] of 256 µg/mL (≈ 468 µM).
The same measure, in the same setting: in the case of `CO/N=C(\C(=O)N[C@@H]1C(=O)N2C(C(=O)[O-])=C(C[N+]3(C)CCCC3)CS[C@H]12)c1csc(N)n1` [CEFEPIME] it was 32 µg/mL (≈ 66.6 µM).
As to `C[C@@H](O)[C@H]1C(=O)N2C(C(=O)O)=C(SCCNC=N)C[C@H]12` [IMIPENEM ANHYDROUS], the MIC against Acinetobacter baumannii [2] and against Acinetobacter baumannii [3] was at least 32 µg/mL in each case.
